According to PMC9344964 (Journal of Enzyme Inhibition and Medicinal Chemistry, 2022):
≈ marks a conversion by molar mass, not a printed value. Where two headings read alike, the source gives them in different places.

How the values were obtained:
[1] = tested on: SARS-CoV-2 [hCoV-19/Egypt/NRC-03/2020]; experiment: SARS-CoV-2 inhibitory assay (IC50 determination, crystal violet) in Vero E6 cells; assay type: cell-based
Method: The IC50 for each examined compound (3a–g) which is equivalent to the minimum concentration to inhibit the virus infectivity by 50% compared to the virus control was calculated. The full methodology was depicted in the Supplementary Data (SI3).
(§1) SI 2. MTT cytotoxicity assay.
(§2) The VERO-E6 cells were kept in 96 well-plates at 37°C in 5% CO2 for 24 h to be cultivated. The tested compounds were diluted with DMEM in HA plate in triplicates as mentioned before and then poured onto the prepared cells after washing twice by sterile 1x phosphate buffer saline (PBS). 24 h later, the cell monolayers were washed three times with sterile 1x PBS after removal of the supernatant followed by the addition of the MTT solution into each individual well (20 µl of 5 mg/ml stock solution) which was kept at 37°C for 4 h. The formed formazan crystals were dissolved using an acidified isopropanol (200 µl) and the absorbance of their solutions were recorded through a multi-well plate reader (λmax = 540 nm) against a reference wavelength (λmax= 620 nm). Finally, the cytotoxicity % of the tested compounds compared to the control cells (untreated cells) was calculated as follow:
(§3) % Cytotoxicity = (the absorbance of untreated cells − absorbance of treated cells) X 100 […]
(§4) SI 3. Inhibitory concentration 50 (IC50) determination.
(§5) The Vero-E6 cells (2.4×104) were kept overnight at 37°C in 5% CO2 inside 96-well tissue culture plates. 1x PBS solution was used to wash the cell monolayers for only one time which were then treated with different serial dilutions of the examined compounds together with a fixed dilution from the virus (hCoV-19/Egypt/NRC-03/2020 (Accession Number on GSAID: EPI_ISL_430820)) following TCID50 test and kept at RT for 1 h before starting incubation. Also, the cell monolayers were subjected to DMEM (100 μl) with different concentrations of the test samples and virus and left at 37°C for 72 h in a 5% CO2. Then, 4% paraformaldehyde (100 μl) was used for cell fixation (2 h) followed by the staining step with 0.1% crystal violet in distilled H2O (50 μl) at RT for 15 min. Absolute CH3OH (100 μl) was added to dissolve the crystal violet dye per well to measure the optical density of the produced color using Anthos Zenyth 200rt plate reader at 570 nm.1 The IC50 value for each tested compound which is corresponding to its minimum concentration required to reduce the virus infectivity by 50% in comparison to the virus control was calculated.

SARS-CoV-2 Mpro = SARS-CoV-2 Mpro (Severe acute respiratory syndrome coronavirus 2, UniProt P0DTD1); experiment: SARS-CoV-2 Mpro assay (3CL Protease Assay Kit); assay type: biochemical
Description: The Mpro activity was investigated using the 3CL Protease Assay Kit. The applied protocol and methodology were depicted in the Supplementary Data (SI4). Herein, the present assay was established to assess the newly synthesised candidates (3a–g) inhibitory effects on the SARS-CoV-2 Mpro enzyme as a recommended mechanism of action.
SI 4. Methodology and protocol of 3CL Protease (SARS-CoV-2) assay.
The 3CL Protease Assay Kit is designed to measure 3CL Protease activity for screening and profiling applications, in a homogeneous assay with no time-consuming washing steps. The kit comes in a convenient 96-well format, with purified 3CL Protease, fluorogenic substrate, and 3CL Protease assay buffer for 100 enzyme reactions. 3CL inhibitor GC376 is also included as a positive control.
Add 0.5 M DTT to 3CL Protease Assay Buffer so final DTT concentration is 1 mM. For example, add 10 μl of 0.5 M DTT to 5 ml assay buffer. (DTT should be added just before use. Prepare only enough DTT-containing buffer as required for the assay. Store the remaining assay buffer at - […]
2) Thaw 3CL Protease on ice. Upon first thaw, briefly spin tube containing enzyme to recover the full content of the tube. Aliquot 3CL Protease into single use aliquots. Store remaining undiluted enzyme in aliquots at -80°C. Note: 3CL Protease enzyme is sensitive to freeze/thaw cycles.
3) Dilute 3CL Protease in Assay buffer (with 1 mM DTT) at 3-5 ng/μl (90-150 ng per reaction).
4) Add 30 μl diluted 3CL Protease enzyme solution to wells designated as “Positive Control”, “Inhibitor Control” and “Test Sample”. Add 30 μl Assay buffer (with 1 mM DTT) to the “Blank” wells.
Component Positive Test Sample Inhibitor Blank
Assay Buffer (with DTT) − − − 30 μl […]
Inhibitor Buffer (no inhibitor) 10 μl − − 10 μl […]
5) Dilute 50 μg GC376 in 200 μl water to obtain a 500 μM solution. Aliquot and store remaining solution in aliquots at -80°C. Add 10 μl GC376 (500 μM) to the wells labeled “Inhibitor Control”.
6) Prepare the inhibitor solution.
The final concentration of DMSO in the assay should not exceed 1%. If the inhibitor compound is dissolved in DMSO, make a 100-fold higher concentration of the compound than the highest […]
concentration you want to test in DMSO. Then make a 20-fold dilution in 1X assay buffer (at this step the compound concentration is 5-fold higher than the final concentration).
If the inhibitor compound is dissolved in water, make a solution of the compound 5-fold higher than the final concentration in 3CL Protease assay buffer (with 1 mM DTT). For example, diluting 50 μg GC376 in 200 μl water (step 5) creates a 500 μM solution. Adding 10 ul to the assay (final volume 50 μl) results in a 100 μM final concentration.
7) Add 10 μl inhibitor to each well designated “Test Sample”. Add 10 μl 1X assay buffer or 5% DMSO (depending on which inhibitor solution is used) to “Blank” and “Positive Control” wells.
8) Preincubate enzyme with the inhibitor for 30 min at room temperature with slow shaking.
9) Dilute 5 mM 3CL Protease substrate 1:20 in assay buffer with DTT, to make a 250 μM solution.
Dilute only enough as is required for the assay.
10) Start reaction by adding 10 μl of the substrate solution to each well (Final concentration of the 3CL Protease substrate in a 50 μl reaction is 50 μM).
11) Incubate at room temperature for overnight. Seal the plate with the plate sealer. Measure the fluorescence intensity in a microtiter plate-reading fluorimeter capable of excitation at a wavelength 360 nm and detection of emission at a wavelength 460 nm. The fluorescence intensity can also be measured kinetically. “Blank” value is subtracted from all other values.
SI 5. Molecular dynamics (MD) simulations.
The MD simulations were carried out using Desmond simulation package of Schrödinger LLC.2 The NPT ensemble with the temperature 300 K and a pressure 1 bar was applied in all runs. The simulation length was 100 ns with a relaxation time 1 ps for the ligands. […]

MTT cytotoxicity assay = assay type: cell-based; conditions: African green monkey, Vero E6 cells, read-out: cytotoxic concentration 50 (CC50)
Method: It was performed to calculate the newly synthesised candidates’ minimum concentrations that cause 50% toxicity to the cells (CC50). First, the newly synthesised derivatives were dissolved in ddH2O with 10% DMSO and then diluted with Dulbecco's Modified Eagle's Medium (DMEM) to the desired concentrations. The MTT assay method was performed with minor changes using VERO-E6 cells (ready for the virus propagation) to be applied in other experiments. The complete methodology was elucidated in the Supplementary Data (SI2).
as §1, §2, §3, §4, §5

[2] = parameters: method as in PMID 34641339; conditions: single-dose administration; cited from earlier work
SARS-CoV-2 = tested on: SARS-CoV-2; parameters: method as in PMID 33352056; conditions: in vitro assessment; read-out: EC50 against SARS-CoV-2; cited from earlier work
[3] = Severe acute respiratory syndrome coronavirus 2, Vero C1008, read-out: IC50 (anti-SARS-CoV-2 activity)
[4] = Severe acute respiratory syndrome coronavirus 2, Vero C1008, Vero E6 cells, hCoV-19/Egypt/NRC-03/2020, read-out: IC50 (anti-SARS-CoV-2 activity)
[5] = 3CL Protease Assay Kit, read-out: SARS-CoV-2 Mpro IC50 (converted)
[6] = values used for multiple linear regression, read-out: IC50 (Table 4, regression model; SARS-CoV-2 Mpro values) (converted)

Row | Compound | IC50 [1, 3] | IC50 [1, 4] | IC50 (SARS-CoV-2 Mpro; [5]) | CC50 at 24 h (MTT cytotoxicity assay) | selectivity index (SI = CC50/IC50) ([1]; Vero E6 cells) | IC50 (SARS-CoV-2 Mpro; [6]) | biological t1/2 [2] | mean Cmax [2] | EC50 (SARS-CoV-2)
1 | Cc1ccc(C(=O)Nc2ncc([N+](=O)[O-])s2)cc1 [Compound 3a, 4-Methyl-N-(5-nitrothiazol-2-yl)benzamide] | 5230 µM | 1380 µg/mL | 17.7 µM | 1470 µg/mL (≈ 5.57 mM) | – | – | – | – | –
2 | O=C(CNC(=O)OCc1ccccc1)Nc1ncc([N+](=O)[O-])s1 [Compound 3b, Benzyl (2-((5-nitrothiazol-2-yl)amino)-2-oxoethyl)carbamate] | 519 µM | 175 µg/mL | 15.2 µM | 1850 µg/mL (≈ 5.51 mM) | 10 | – | – | – | –
3 | C[C@H](NC(=O)OCc1ccccc1)C(=O)Nc1ncc([N+](=O)[O-])s1 [Compound 3c, Benzyl (S)-(1-((5-nitrothiazol-2-yl)amino)-1-oxopropan-2-yl)carbamate] | 1990 µM | 698 µg/mL | – | 2120 µg/mL (≈ 6.05 mM) | 3 | 34 µM | – | – | –
4 | CC(C)[C@H](NC(=O)OCc1ccccc1)C(=O)Nc1ncc([N+](=O)[O-])s1 [Compound 3d, Benzyl (S)-(3-methyl-1-((5-nitrothiazol-2-yl)amino)-1-oxobutan-2-yl)carbamate] | > 1200 µg/mL | – | – | 1200 µg/mL (≈ 3.18 mM) | – | 235 µM | – | – | –
5 | O=C(N[C@@H](Cc1ccccc1)C(=O)Nc1ncc([N+](=O)[O-])s1)OCc1ccccc1 [Compound 3e, Benzyl (S)-(1-((5-nitrothiazol-2-yl)amino)-1-oxo-3-phenylpropan-2-yl)carbamate] | 3010 µM | 1280 µg/mL | – | 2040 µg/mL (≈ 4.78 mM) | – | 38.9 µM | – | – | –
6 | O=C(Nc1ncc([N+](=O)[O-])s1)[C@@H]1CCCN1C(=O)OCc1ccccc1 [Compound 3f, Benzyl (S)-2-((5-nitrothiazol-2-yl)carbamoyl)pyrrolidine-1-carboxylate] | 3330 µM | 1250 µg/mL | – | 2800 µg/mL (≈ 7.44 mM) | – | 59.4 µM | – | – | –
7 | O=C(N[C@@H](Cc1c[nH]c2ccccc12)C(=O)Nc1ncc([N+](=O)[O-])s1)OCc1ccccc1 [Compound 3g, Benzyl (S)-(3-(1H-indol-3-yl)-1-((5-nitrothiazol-2-yl)amino)-1-oxopropan-2-yl)carbamate] | > 1630 µg/mL | – | – | 1630 µg/mL (≈ 3.49 mM) | – | 110 µM | – | – | –
8 | CC(C)C(=O)OC[C@H]1O[C@@H](n2ccc(NO)nc2=O)[C@H](O)[C@@H]1O [molnupiravir] | – | – | – | – | – | – | 7 h | 13.2 ng/mL | –
9 | CC(=O)Oc1ccccc1C(=O)Nc1ncc([N+](=O)[O-])s1 [nitazoxanide] | – | – | – | – | – | – | – | – | 2.12 µM
